Laboratory results: ChEMBL document CHEMBL1649245
Calls of active or inactive are those of the source.

Legend:
Mycoplasma capricolum [1] = test: Antimicrobial activity against wild-type Mycoplasma capricolum at 1 to 3 ug/ml; assay type: functional
[2] = system: Mycoplasmoides pneumoniae; test: Antimicrobial activity against wild-type Mycoplasma pneumoniae at 1 to 3 ug/ml; assay type: functional, organism-based
Mycoplasma capricolum [3] = test: Antimicrobial activity against wild-type Mycoplasma capricolum at 3.7 ug/ml; assay type: functional
Escherichia coli = test: Antimicrobial activity against Escherichia coli at 10 to 50 ug/ml; assay type: functional, organism-based
Mycoplasma mycoides = test: Antimicrobial activity against wild-type Mycoplasma mycoides at 1 to 3 ug/ml; assay type: functional
Mycoplasma genitalium = test: Antimicrobial activity against wild-type Mycoplasma genitalium at 1 to 3 ug/ml; assay type: functional; conditions: Mycoplasmoides genitalium
[4] = system: Mycoplasmoides gallisepticum; test: Antimicrobial activity against wild-type Mycoplasma gallisepticum at 1 to 3 ug/ml; assay type: functional, organism-based

Measured: Activity

COc1ccc(C[C@H](N)C(=O)N[C@H]2[C@@H](O)[C@H](n3cnc4c(N(C)C)ncnc43)O[C@@H]2CO)cc1
active: Mycoplasma capricolum [1] | [2] | Mycoplasma capricolum [3] | Escherichia coli | Mycoplasma mycoides | Mycoplasma genitalium | [4]
